We go through five cell lines from the supplement of paper PMC9663587.

Compound in one assay: CCOc1cc2ncc(C#N)c(Nc3ccc(OCc4ccccn4)c(Cl)c3)c2cc1NC(=O)/C=C/CN(C)C [Neratinib/HKI272]
In words: GR value, 72 h; higher = faster growth (1 = untreated, <0 = killing).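 Also: breast cancer and non-malignant breast epithelial lines, nine half-log doses, viable cells counted by Hoechst and LIVE/DEAD dye imaging versus time-zero plates and DMSO controls.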 The settings on record: 0.0003162 µM.
On to SUM159, for which the GR value worked out at 1.01 GR.
Still for that read-out and setting: next, SUM185PE: 0.996 GR; SUM190PT: 1.06 GR; SUM229PE: 1.03 GR.
On the same count and under the same terms, the same measure for SUM1315: 1.07 GR.

The same assay, now with this note: 0.001 µM.
For the cell line SUM159, the GR value is 1.02 GR.
For SUM185PE, the GR value is 1.05 GR.
Same read-out and setting: the same measure for SUM190PT: 1.04 GR; for SUM229PE: 0.967 GR.
As for SUM1315, the GR value was 0.992 GR.

Still in this assay, the particulars now being: 0.003162 µM.
SUM159: the GR value stood at 1.02 GR.
Still for that read-out and setting: the same measure for SUM185PE: 0.979 GR.
Still for that read-out and setting: the same measure for SUM190PT: 1.06 GR; for SUM229PE: 0.972 GR.
As for SUM1315, the GR value turned out to be 1.01 GR.

Still in this assay, the particulars now being: 0.01 µM.
For the cell line SUM159, the GR value was 0.994 GR.
Same read-out and setting: next, SUM185PE: 0.808 GR; SUM190PT: 0.999 GR; SUM229PE: 0.951 GR.
Turning to SUM1315, the GR value amounted to 0.908 GR.

The assay is the same for the next values; noted with them: 0.03162 µM.
Turning to SUM159, the GR value was 0.96 GR.
Still for that read-out and setting: the same measure for SUM185PE: 0.839 GR; for SUM190PT: 1.08 GR.
Still for that read-out and setting: the same measure for SUM229PE: 0.952 GR; for SUM1315: 0.69 GR.

The same assay, now with this note: 0.1 µM.
SUM159: the GR value was found to be 0.927 GR.
Same read-out and setting: next, SUM185PE: 0.681 GR; SUM190PT: 0.956 GR.
Still for that read-out and setting: next, SUM229PE: 0.751 GR; SUM1315: 0.517 GR.

Still in this assay, the particulars now being: 0.3162 µM.
Turning to SUM159, the GR value is 0.851 GR.
The same measure, in the same setting: next, SUM185PE: 0.595 GR.
The same measure, in the same setting: next, SUM190PT: 0.915 GR; SUM229PE: 0.562 GR.
Turning to SUM1315, the GR value came to 0.309 GR.

The same assay, now with this note: 1 µM.
On to SUM159, for which the GR value is 0.705 GR.
With SUM185PE, the GR value was 0.476 GR.
On the same count and under the same terms, next, SUM190PT: 0.658 GR.
Same read-out and setting: the same measure for SUM229PE: 0.386 GR; for SUM1315: 0.162 GR.

The same assay, now with this note: 3.162 µM.
SUM159: the GR value stood at 0.507 GR.
Same read-out and setting: the same measure for SUM185PE: 0.267 GR; for SUM190PT: 0.429 GR; for SUM229PE: 0.203 GR.
Same read-out and setting: the same measure for SUM1315: 0.101 GR.

Compound in the next assay: CN(C)C/C=C/C(=O)Nc1ccc(C(=O)Nc2cccc(Nc3ncc(Cl)c(-c4c[nH]c5ccccc45)n3)c2)cc1 [THZ1]
The assay is described as above. As to conditions: 0.0001 µM.
Consider SUM159, for which the GR value was determined as 1.01 GR.
In the case of SUM185PE, the GR value stood at 1.02 GR.
Same read-out and setting: the same measure for SUM190PT: 1.05 GR; for SUM229PE: 1 GR.
The same measure, in the same setting: the same measure for SUM1315: 1.24 GR.

The assay is the same for the next values; noted with them: 0.0003162 µM.
Take SUM159: the GR value came to 0.974 GR.
The same measure, in the same setting: next, SUM185PE: 0.945 GR.
With SUM190PT, the GR value worked out at 0.839 GR.
On the same count and under the same terms, the same measure for SUM229PE: 1 GR; for SUM1315: 1.06 GR.

The same assay, now with this note: 0.001 µM.
As for SUM159, the GR value came to 0.974 GR.
The same measure, in the same setting: the same measure for SUM185PE: 1.02 GR; for SUM190PT: 0.923 GR.
Same read-out and setting: the same measure for SUM229PE: 1.04 GR; for SUM1315: 1.06 GR.

The assay is the same for the next values; noted with them: 0.003162 µM.
For the cell line SUM159, the GR value was found to be 0.963 GR.
Same read-out and setting: next, SUM185PE: 0.734 GR; SUM190PT: 0.842 GR.
The same measure, in the same setting: next, SUM229PE: 0.953 GR.
Same read-out and setting: the same measure for SUM1315: 0.773 GR.

The assay is the same for the next values; noted with them: 0.01 µM.
Consider SUM159, for which the GR value came to 0.99 GR.
SUM185PE: the GR value is 0.855 GR.
